Measured values: patent US20060223846A1, “Aza-bridged-bicyclic amino acid derivatives as alpha4 integrin antagonists” (priority 2005, published 2006)
pIC50: −log10 of the molar value. Like-named read-outs stand apart in the source and are kept apart here.

Experiments:
[1] = system: oxazolone-induced contact hypersensitivity; conditions: 6 mg/kg, sc; mouse; cited from earlier work
[2] = target: T1, α4β1 (Homo sapiens, UniProt P05556+P13612); conditions: literature (Tamraz et al.); cited from earlier work
T1 sequence (P05556 21-798, one chain of several): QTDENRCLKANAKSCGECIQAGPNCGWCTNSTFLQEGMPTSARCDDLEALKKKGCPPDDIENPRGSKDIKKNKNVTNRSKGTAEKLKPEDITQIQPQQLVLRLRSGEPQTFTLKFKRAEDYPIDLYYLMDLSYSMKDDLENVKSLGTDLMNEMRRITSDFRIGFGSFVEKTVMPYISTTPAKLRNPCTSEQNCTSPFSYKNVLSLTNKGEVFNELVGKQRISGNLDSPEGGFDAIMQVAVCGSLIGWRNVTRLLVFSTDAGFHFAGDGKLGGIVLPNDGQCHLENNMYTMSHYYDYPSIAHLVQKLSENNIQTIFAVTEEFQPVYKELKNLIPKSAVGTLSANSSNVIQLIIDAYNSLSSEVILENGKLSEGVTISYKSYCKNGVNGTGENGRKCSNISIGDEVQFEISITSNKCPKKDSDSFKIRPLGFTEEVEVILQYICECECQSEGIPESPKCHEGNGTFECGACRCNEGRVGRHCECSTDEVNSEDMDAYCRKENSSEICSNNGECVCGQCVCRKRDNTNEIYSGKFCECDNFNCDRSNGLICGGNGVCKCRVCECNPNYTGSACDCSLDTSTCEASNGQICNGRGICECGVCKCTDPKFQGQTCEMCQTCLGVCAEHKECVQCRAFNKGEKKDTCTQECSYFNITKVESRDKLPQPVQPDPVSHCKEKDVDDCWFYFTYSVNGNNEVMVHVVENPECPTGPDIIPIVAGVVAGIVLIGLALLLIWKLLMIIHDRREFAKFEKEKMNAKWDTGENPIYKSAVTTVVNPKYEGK

[3] = system: heterotopic heart allograft; conditions: hyperlipidemic rabbit; cited from earlier work
[4] = target: T1, α4β1; assay: Ramos Cell Adhesion Assay (α4β1 Mediated Adhesion/VCAM-1); type: cell-based; parameters: Ramos cells, (50 μL at 2×10^6/mL) labeled with 5 μM Calcein AM; endogenous in cells; host or cells: Ramos cells
Protocol: (§1) Ramos Cell Adhesion Assay α4β1 Mediated Adhesion/VCAM-1) Immulon 9.6 well plates (Dynex) were coated with 100 μL recombinant hVCAM-1 at 4.0 μg/mL in 0.05 M NaCO3 buffer pH 9.0 overnight at 4° C. (R&D Systems). Plates were washed 3 times in PBS with 1% BSA and blocked for 1 h @ room temperature in this buffer. PBS was removed and compounds to be tested (50 μL) were added at 2× concentration. Ramos cells, (50 μL at 2×10^6/mL) labeled with 5 μM Calcein AM (Molecular Probes) for 1 h at 37° C., were added to each well and allowed to adhere for 1 h at room temperature. Plates were washed 3× in PBS+1% BSA and cells were lysed for 15 minutes in 100 μL of 1 M Tris pH 8.0 with 1% SDS. The plate was read at 485 nm excitation and 530 nm emission.

[5] = target: T2, human α4β7 (Homo sapiens, UniProt P13612+P26010); assay: α4β7-K562 Cell Adhesion Assay (α4β7 Mediated Adhesion/VCAM-1); type: cell-based
T2 construct: expressed in transfected cells
T2 sequence (P13612 34-1032): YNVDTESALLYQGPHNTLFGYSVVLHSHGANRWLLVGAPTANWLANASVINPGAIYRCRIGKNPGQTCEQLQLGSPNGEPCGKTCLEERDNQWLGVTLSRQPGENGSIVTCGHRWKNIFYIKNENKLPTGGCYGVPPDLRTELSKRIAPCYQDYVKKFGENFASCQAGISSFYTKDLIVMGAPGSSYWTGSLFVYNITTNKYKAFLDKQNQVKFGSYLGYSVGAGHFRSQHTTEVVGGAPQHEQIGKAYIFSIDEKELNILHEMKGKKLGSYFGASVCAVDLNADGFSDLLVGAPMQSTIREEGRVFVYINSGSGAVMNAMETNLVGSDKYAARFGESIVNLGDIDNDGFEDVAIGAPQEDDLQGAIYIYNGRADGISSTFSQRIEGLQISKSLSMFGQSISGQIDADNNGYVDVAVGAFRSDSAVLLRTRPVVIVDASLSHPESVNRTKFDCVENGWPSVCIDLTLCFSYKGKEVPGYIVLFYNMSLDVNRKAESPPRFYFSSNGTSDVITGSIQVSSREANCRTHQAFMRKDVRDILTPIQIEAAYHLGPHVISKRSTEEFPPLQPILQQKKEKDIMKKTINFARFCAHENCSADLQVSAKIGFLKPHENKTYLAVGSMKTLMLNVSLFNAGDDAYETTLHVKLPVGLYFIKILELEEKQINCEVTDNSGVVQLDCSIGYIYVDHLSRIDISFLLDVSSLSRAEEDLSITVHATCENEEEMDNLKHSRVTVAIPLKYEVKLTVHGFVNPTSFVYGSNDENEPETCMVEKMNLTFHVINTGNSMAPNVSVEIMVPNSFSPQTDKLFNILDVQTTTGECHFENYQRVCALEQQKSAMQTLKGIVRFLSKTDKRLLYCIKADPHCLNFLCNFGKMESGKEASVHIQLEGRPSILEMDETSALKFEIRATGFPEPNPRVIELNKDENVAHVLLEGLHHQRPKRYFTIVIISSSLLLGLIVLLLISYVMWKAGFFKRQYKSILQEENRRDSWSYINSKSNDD
T2 sequence (P26010 20-798): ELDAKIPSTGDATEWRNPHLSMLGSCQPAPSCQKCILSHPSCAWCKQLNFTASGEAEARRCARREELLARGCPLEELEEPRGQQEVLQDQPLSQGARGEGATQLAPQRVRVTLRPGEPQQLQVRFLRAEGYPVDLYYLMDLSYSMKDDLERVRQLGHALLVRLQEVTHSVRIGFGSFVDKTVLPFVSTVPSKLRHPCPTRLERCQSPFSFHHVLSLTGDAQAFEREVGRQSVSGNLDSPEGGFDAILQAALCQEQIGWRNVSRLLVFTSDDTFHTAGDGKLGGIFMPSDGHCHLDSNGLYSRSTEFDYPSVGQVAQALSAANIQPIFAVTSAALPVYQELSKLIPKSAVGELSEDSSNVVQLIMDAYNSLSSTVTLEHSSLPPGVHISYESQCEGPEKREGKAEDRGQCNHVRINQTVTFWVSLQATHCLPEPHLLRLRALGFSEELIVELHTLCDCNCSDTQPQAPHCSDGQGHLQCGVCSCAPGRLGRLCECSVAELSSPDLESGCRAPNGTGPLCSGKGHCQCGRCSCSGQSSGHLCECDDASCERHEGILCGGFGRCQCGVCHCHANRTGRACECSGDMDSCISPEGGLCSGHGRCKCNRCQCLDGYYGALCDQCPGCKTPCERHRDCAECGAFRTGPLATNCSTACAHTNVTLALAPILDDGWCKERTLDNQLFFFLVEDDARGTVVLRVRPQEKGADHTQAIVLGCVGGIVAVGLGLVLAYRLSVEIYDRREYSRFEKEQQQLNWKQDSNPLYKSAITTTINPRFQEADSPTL
Protocol: as §1, with “α4β7-K562” for “Ramos”, “(α4β7” for “α4β1”, “96” for “9.6”, “System).” for “Systems).”, “A stable cell line of K562 cells expressing human α4β7,” for “Ramos cells,”

[6] = system: circulating white blood cells (leukocytes); assay: Leukocytosis Procedure; type: in vivo, Balb/c mice; conditions: bled 1-1.5 hours after administration
Description: Background: Leukocytosis is the increase in circulating white blood cells (leukocytes). Luekocytosis can be caused by preventing leukocyte binding to integrin counter-receptor adhesion molecules expressed on high endothelial venules. This cell adhesion occurs between immunoglobulin superfamily molecules and integrins. Relevant examples of these paired interactions include […] Adhesion Molecule-1 and αLβ2 integrin, Vascular Cell Adhesion Molecule-1 and α4β1 integrin, and Mucosal Addressin Cell Adhesion Molecule-1 and α4β7 integrin, respectively.
In this model, a compound that antagonizes these leukocyte-endothelial interactions will cause an increase in circulating leukocytes, defined as leukocytosis, as measured at 1-1.5 hours post-administration. This leukocytosis is indicative that normal lymphocyte or leukocyte emigration from the peripheral circulation was prevented. Similar emigration of cells out of the circulation into inflamed tissues is responsible for the progression and maintenance of the inflammatory state. Leukocytosis is an indication that lymphocyte and leukocyte extravasation is prevented, and is predictive of general anti-inflammatory activity.
1 week prior to being tested, 7-10 week old female Balb/c mice, n=8 per group, were bled and randomized according to leukocyte counts. One week later, the mice were administered a test compound orally or subcutaneously and then bled 1-1.5 hours after drug administration, approximately one hour after the peak blood concentration of the compound had occurred. Whole blood, 250-350 microliters, was collected from each mouse into potassium-EDTA serum collection tubes (Becton-Dickenson) and mixed to prevent clotting.
Cell counts and differential counts on the whole blood preparation were performed using an Advia 120 Hematology System (Bayer Diagnostics). Cell counts as total leukocytes and as total lympohcytes were made and compared to counts made from mice dosed with vehicle only. Data were reported as percent of vehicle control for lymphocyte counts and total leukocyte counts. Statistical analyses were performed using ANOVA with Dunnet's multiple comparison test

| Molecule | efficacy in oxazolone-induced contact hypersensitivity [1] | pIC50 [2] | efficacy in heart allograft model [3] | pIC50 ([4]; Ramos cells on recombinant hVCAM-1, read-out: α4β1 IC50) | pIC50 ([4]; repeated in leukocytosis table, unit inferred, read-out: α4β1) | pIC50 ([5]; K562 cells expressing human α4β7 on recombinant hVCAM-1, read-out: α4β7 IC50) | pIC50 ([5]; repeated in leukocytosis table, unit inferred, read-out: α4β7) | Lymphocyte Counts % of Vehicle Control ([6]; 3 mg/kg sc) | Total Leukocyte Counts % of Vehicle Control ([6]; 3 mg/kg sc) | Lymphocyte Counts % of Vehicle Control ([6]; 10 mg/kg sc) | Total Leukocyte Counts % of Vehicle Control ([6]; 10 mg/kg sc) | Lymphocyte Counts % of Vehicle Control ([6]; 30 mg/kg sc) | Total Leukocyte Counts % of Vehicle Control ([6]; 30 mg/kg sc) |
| --- | --- | --- | --- | --- | --- | --- | --- | --- | --- | --- | --- | --- | --- |
| Phenylacetyl-Leu-Asp-Phe-D-Pro-NH2 | efficacy similar to the α4 antibody PS/2 | 5.70 | effective | – | – | – | – | – | – | – | – | – | – |
| O=C(Nc1ccc(CC(NC(=O)C2C3CCC(CC3)N2C(=O)CCc2ccccc2)C(=O)O)cc1)c1c(Cl)cncc1Cl (stereo not shown) [Cpd 39] | – | – | – | 9.05 | 9.05 | 8.15 | 8.15 | 205.2 % of Vehicle Control | 175.1 % of Vehicle Control | 150.3 % of Vehicle Control | 134.3 % of Vehicle Control | 253.9 % of Vehicle Control | 212.2 % of Vehicle Control |
